Experimental data reported in ChEMBL document CHEMBL1201862, “PubChem BioAssay data set” (2004).
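Results reflect a 48-hour exposure of cells in 96-well plates to compound at five concentrations. GI50: concentration for 50% inhibition of growth.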 The source made the active and inactive calls. Rule as the data show it: active = GI50 up to about 1.1 µM and inactive = higher.

Key:
Assay in all cases: NCI-60 cell line screen, 48 h
HCC 2998 = system: HCC 2998
SF-295 = system: SF-295
RXF 393 = system: RXF 393
DU-145 = system: DU-145
UACC-257 = system: UACC-257
NCI-H522 = system: NCI-H522
HOP-92 = system: HOP-92
NCI-H460 = system: NCI-H460
A498 = system: A498
LOX IMVI = system: LOX IMVI
CCRF-CEM = system: CCRF-CEM
RPMI-8226 = system: RPMI-8226
OVCAR-8 = system: OVCAR-8
MDA-MB-231 = system: MDA-MB-231
NCI-H23 = system: NCI-H23
SF-268 = system: SF-268
HCT-15 = system: HCT-15
SNB-75 = system: SNB-75
Hs-578T = system: Hs-578T

SMILES | GI50 (HCC 2998) | GI50 (SF-295) | GI50 (RXF 393) | GI50 (DU-145) | GI50 (UACC-257) | GI50 (NCI-H522) | GI50 (HOP-92) | GI50 (NCI-H460) | GI50 (A498) | GI50 (LOX IMVI) | GI50 (CCRF-CEM) | GI50 (RPMI-8226) | GI50 (OVCAR-8) | GI50 (MDA-MB-231) | GI50 (NCI-H23) | GI50 (SF-268) | GI50 (HCT-15) | GI50 (SNB-75) | GI50 (Hs-578T)
O=c1sc2c(s1)SSSSS2 | > 50 µM (inactive) | > 50 µM (inactive) | > 50 µM (inactive) | > 50 µM (inactive) | 28.6 µM (inactive) | 34.2 µM (inactive) | > 50 µM (inactive) | 21.4 µM (inactive) | > 50 µM (inactive) | 30.5 µM (inactive) | 9.18 µM (inactive) | > 50 µM (inactive) | > 50 µM (inactive) | > 50 µM (inactive) | > 50 µM (inactive) | 28.6 µM (inactive) | > 50 µM | – | –
COc1ccc(C2(CC(C)C)CCN(S(=O)(=O)c3ccc(C)cc3)C2)cc1OC (stereo unspecified) | 27.6 µM (inactive) | 36.5 µM (inactive) | 34 µM (inactive) | 36 µM (inactive) | 28.5 µM (inactive) | 25.8 µM (inactive) | – | 29.2 µM (inactive) | – | 19.5 µM (inactive) | 17.9 µM (inactive) | – | – | > 100 µM (inactive) | 29.8 µM (inactive) | 21.9 µM (inactive) | 31.7 µM | 36.9 µM (inactive) | –
COC(=O)C1SC(N(C)c2ccccc2)=NC12c1ccccc1Nc1ccccc12 (stereo unspecified) | 20.5 µM (inactive) | 17.2 µM (inactive) | 31.3 µM (inactive) | 25.7 µM (inactive) | 25.2 µM (inactive) | 13.4 µM (inactive) | 14.1 µM (inactive) | 10.8 µM (inactive) | 20.7 µM (inactive) | 19.1 µM (inactive) | 6.71 µM (inactive) | 3.08 µM (inactive) | 8.89 µM (inactive) | – | 13.6 µM (inactive) | 21 µM (inactive) | 13.6 µM | 25.8 µM (inactive) | 14.5 µM (inactive)
C1CN2CCNCCN(CCN1)CC2 | – | > 100 µM (inactive) | > 100 µM (inactive) | > 100 µM (inactive) | > 100 µM (inactive) | > 100 µM (inactive) | > 100 µM (inactive) | > 100 µM (inactive) | > 100 µM (inactive) | > 100 µM (inactive) | 3.9 µM (inactive) | > 100 µM (inactive) | > 100 µM (inactive) | > 100 µM (inactive) | > 100 µM (inactive) | > 100 µM (inactive) | > 100 µM | > 100 µM (inactive) | > 100 µM (inactive)
O=c1cc(-c2ccccc2)oc2ccc(-c3ccc4oc(-c5ccccc5)cc(=O)c4c3)cc12 | 16 µM (inactive) | 20.8 µM (inactive) | – | – | > 10 µM (inactive) | – | 14.4 µM (inactive) | 19.6 µM (inactive) | 14.7 µM (inactive) | 17.3 µM (inactive) | 18 µM (inactive) | 13.5 µM (inactive) | 16.6 µM (inactive) | – | 15.7 µM (inactive) | – | 15.8 µM | – | 12.2 µM (inactive)
O=S1(=O)OCCOS(=O)(=O)C1F | > 100 µM (inactive) | > 100 µM (inactive) | > 100 µM (inactive) | > 100 µM (inactive) | > 100 µM (inactive) | > 100 µM (inactive) | – | – | – | > 100 µM (inactive) | > 100 µM (inactive) | > 100 µM (inactive) | > 100 µM (inactive) | – | > 100 µM (inactive) | > 100 µM (inactive) | > 100 µM | > 100 µM (inactive) | > 100 µM (inactive)
CCOC(=O)Cc1ccc(Nc2nc3ccccc3nc2C(=O)OCC)cc1 | – | 32.9 µM (inactive) | 24 µM (inactive) | 95.9 µM (inactive) | > 100 µM (inactive) | 89.9 µM (inactive) | 43.8 µM (inactive) | 44.6 µM (inactive) | 20.7 µM (inactive) | > 100 µM (inactive) | > 100 µM (inactive) | – | 56.1 µM (inactive) | – | 47.5 µM (inactive) | 53.7 µM (inactive) | > 100 µM | 17.9 µM (inactive) | 34.5 µM (inactive)
COc1cc(/C=C/C(=O)OC[C@H](Br)[C@H](OC(C)=O)c2ccc3c(c2)OCO3)cc(OC)c1OC | 80.4 µM (inactive) | > 100 µM (inactive) | > 100 µM (inactive) | > 100 µM (inactive) | > 100 µM (inactive) | > 100 µM (inactive) | > 100 µM (inactive) | – | > 100 µM (inactive) | > 100 µM (inactive) | > 100 µM (inactive) | 61.1 µM (inactive) | > 100 µM (inactive) | > 100 µM (inactive) | > 100 µM (inactive) | > 100 µM (inactive) | > 100 µM | – | –
CSc1ccc(/C=C2\CNC/C(=C\c3ccc(SC)cc3)C2=O)cc1 | – | 29.4 µM (inactive) | 25.9 µM (inactive) | > 371 µM (inactive) | > 143 µM (inactive) | 56.4 µM (inactive) | 65.5 µM (inactive) | > 119 µM (inactive) | – | – | – | > 79.8 µM (inactive) | 52.4 µM (inactive) | 86.9 µM (inactive) | – | 13.4 µM (inactive) | > 179 µM | 15 µM (inactive) | 64.1 µM (inactive)
